Experiments:
[1] = molecular target: T1, tubulin (Sus scrofa, UniProt P02554); assay: In vitro tubulin polymerization assay (HTS-tubulin polymerization kit, Cytoskeleton); type: biochemical; conditions: 3 μM compound, fluorescence, 70 minutes at 37° C.
T1 construct: purchased Cytoskeleton Inc. BK011P
Description: 1.5 ul of 10× strength compound, 20 μl of tubulin solution and Triton X-100 at a final concentration of 0.01% were added to each well in a 384 well plate. The reactions were assembled on ice to prevent tubulin pre-polymerization. For kinetic measurements, microtubule polymerization was monitored by reading the fluorescence at 420 nm (due to the incorporation of a fluorescent reporter into microtubules as polymerization occurs) every ten seconds using a Tecan M1000 microplate reader (FIG. 6B). […] Fluorescence increased as polymerization occurred, due to the incorporation of 4′,6-diamidino-2-phenylindole. Fluorescence was monitored every minute for 70 minutes at 37° C.
Tubulin polymerization reactions were carried out according to the manufacturer (Cytoskeleton, BK011P) in the presence of 3 μM colchicine, MI-181, taxol or DMSO. Polymerization was monitored with a Tecan M1000 micro-plate reader at 420 nm for 70 minutes at 37° C. The results are depicted in FIG. 11.

[2] = tested on: patient-derived glioblastoma cells (HK-309); assay: CellTiter-Glo cell viability, patient-derived glioblastoma cells; type: cell-based; conditions: HK-309, 72 hours
Description: (§1) The cell viability IC50 of each compound was determined using Promega CellTiter-Glo Luminescent Cell Viability Assay kit by measuring the total ATP levels to quantify the number of metabolically active cells upon drug treatment as described in Crouch et al., J Immunol Methods 1993, 160, (1), 81-8. Briefly, the compounds were suspended in DMSO at 10 mM and diluted in 384 plates (20 μl/well in DMSO) in triplicate by a 14-point titration (12 nM to 100 μM). 50 μl of HeLa cells or patient derived glioblastoma cells (HK-309) (2000 cells/well) were then treated with the prepared dilutions of the drugs (0.5 μl) and incubated at 37° C. and 5% CO2. 72 hours later 50 μl of CellTiter-Glo reagent was added to each well followed by a 2 minutes shaking and a 10-minute incubation to lyse the cells. The relative luminescent intensity units (RLU) of each well was measured using a Tecan M1000 microplate reader (Tecan Group Ltd.) with its green filter and 1 second integration time.
(§2) Cells used in Example 2 and other examples disclosed herein were cultured as follows: Adherent HeLa cells and patient derived glioblastoma cells were grown with 5% CO2 at 37° C. in F12:DMEM 50:50 medium (Invitrogen) containing 10% FBS and 1% penicillin/streptomycin. To obtain HeLa cells synchronized in mitosis, cycling cells were treated with 2 mM thymidine (Sigma-Aldrich) for eighteen hours, washed three times with PBS, and released into fresh media until they entered mitosis eight hours post-release. Patient-derived glioblastoma cells (HK-309) were collected and grown with approval from the UCLA Institutional Review Board. HK-309 was derived from a recurrent glioblastoma taken from a person. The cells were initially propagated as cancer stem cell-containing spheres in serum-free medium containing basic fibroblast growth factor and epidermal growth factor (Preprotech) as described previously by Visnyei et al., Mol Cancer Ther 2011, 10, (10), 1818-28.

[3] = tested on: HeLa cells; assay: Microtubule stability by immunofluorescence microscopy; type: cell-based; conditions: increasing concentrations, anti-α-tubulin staining
Description: Next, microtubule stability was analyzed in HeLa cells treated with increasing concentrations of each of these three compounds by fixing the cells with 4% paraformaldehyde, staining them with Hoechst 33342 (DNA dye) to visualize their DNA and anti-α-tubulin antibodies to visualize microtubule structures and then imaging them by immunofluorescence microscopy.

[4] = tested on: HeLa cells; assay: Cell cycle analysis / cell division; type: cell-based; conditions: 20 hours
Description: For cell cycle analysis, HeLa cells were plated in 384 well plates (1500 cells/well) and treated with 10 μM drugs for 20 hours. Cells were then fixed and stained with 5 μM Vybrant DyeCycle Green (Invitrogen) for 1 hour at 37° C. and plates were scanned with an Acumen eX3 (TTP Labtech) fluorescence microplate cytometer using its 488 nm laser and a cell cycle histogram profile was generated for each drug treatment using the CDD (Collaborative Drug Discovery) software. […] Additionally, HeLa cells were treated with increasing concentrations of colchicine and compound 10 for 20 hours and the drug response dose curves were used to measure the mitotic arrest IC50 for each treatment.
Briefly, HeLa cells were treated with increasing concentrations of 10, 10a, and 10b for 20 hours and the drug response dose curves were used to measure the mitotic arrest IC50 for each treatment. Also, the percentage of cells undergoing normal cell division was quantified for DMSO, colchicine, 10b, or taxol-treated cells. Data represent the average±SD of 3 independent experiments, with 20 cells counted for each. Asterisks denotes p-value<0.0001.

[5] = tested on: HeLa cells; assay: CellTiter-Glo cell viability, HeLa cells; type: cell-based; conditions: Homo sapiens; HeLa cells, 72 hours, CellTiter-Glo
Description: as §1, §2
For mitotic arrest IC50s, cells were treated with a twenty-point-2-fold-titration (190 pM to 10 μM) of each compound tested for 20 hours. For cell viability IC50s, cells were treated with a fourteen-point-2-fold-titration (12.2 nM to 100 μM). Mitotic arrest IC50 was determined by measuring the percent G2/M arrest using the Vybrant DyeCycle Green (Invitrogen) assay described above. Cell viability IC50 was determined using the CellTiter-Glo Assay (Promega), which measures total ATP levels. Plates were read with a Tecan M1000 micro-plate reader at 540 nm. The CDD software was used for generating IC50 and IC90 values.

[6] = tested on: β-tubulin; assay: Crystal structure of T2R-TTL tubulin complex soaked with ligand; type: binding, bovine; conditions: T2R-TTL crystal soaked 24 hours with 1 mM compound
Description: The crystal structure of tubulin bound to two ligands described here was obtained using an established system for tubulin crystal growth. […] Methods in Cell Biology 2010, 95:373-390.) Briefly, bovine αβ-tubulin, human RB3 or rat STMN4 stathmin-like domain, and chicken tubulin tyrosine ligase (TTL) reconstitute to form a stathmin-bound αβ-tubulin (T2R) T2R-TTL complex, which readily crystallizes. […]
The final resolution cutoffs described here were determined optimally from a subset of diffraction images that took into consideration the signal-to-noise ratio for reflection intensities and the random half-data set correlation coefficient, CC1/2 (Karplus P. A., Diederichs K. Linking crystallographic model and data quality. Science 2012, (New York, N.Y.) 336:1030-1033.) […]

T1 sequence (P02554 whole entry): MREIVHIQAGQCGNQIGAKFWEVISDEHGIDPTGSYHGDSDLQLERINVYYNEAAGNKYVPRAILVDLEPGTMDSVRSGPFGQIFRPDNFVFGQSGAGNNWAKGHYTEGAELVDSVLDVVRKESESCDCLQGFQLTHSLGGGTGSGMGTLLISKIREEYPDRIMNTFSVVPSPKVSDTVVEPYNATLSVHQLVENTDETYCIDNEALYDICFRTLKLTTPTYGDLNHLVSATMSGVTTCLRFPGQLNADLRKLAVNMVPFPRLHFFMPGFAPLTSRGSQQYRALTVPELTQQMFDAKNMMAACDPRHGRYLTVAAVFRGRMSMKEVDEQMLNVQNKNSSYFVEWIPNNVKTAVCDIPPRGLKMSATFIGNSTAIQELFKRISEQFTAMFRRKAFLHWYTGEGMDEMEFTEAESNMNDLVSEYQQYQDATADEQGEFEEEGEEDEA
T1 sequence (P02550 whole entry partner): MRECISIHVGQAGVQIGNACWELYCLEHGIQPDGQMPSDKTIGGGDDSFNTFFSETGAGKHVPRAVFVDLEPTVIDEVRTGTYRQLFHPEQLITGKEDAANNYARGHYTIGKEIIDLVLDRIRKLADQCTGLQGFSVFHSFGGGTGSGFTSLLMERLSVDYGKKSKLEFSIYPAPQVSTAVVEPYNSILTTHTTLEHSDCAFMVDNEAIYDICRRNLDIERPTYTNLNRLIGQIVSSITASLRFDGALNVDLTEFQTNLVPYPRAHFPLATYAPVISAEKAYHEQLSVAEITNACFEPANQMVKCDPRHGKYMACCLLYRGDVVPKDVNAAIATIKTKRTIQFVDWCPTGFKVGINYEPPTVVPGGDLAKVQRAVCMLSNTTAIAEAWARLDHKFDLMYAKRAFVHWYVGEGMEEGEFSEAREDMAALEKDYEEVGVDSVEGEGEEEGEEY

SMILES | inhibition of microtubule (tubulin) polymerization in vitro [1] | IC50 [2] [nM] | microtubule stability in treated cells [3] | effect on cell division and cell death [4] | IC50 [5] [nM] | binding to tubulin in crystal structure [6]
O=c1[nH]c(/C=C/c2ccccc2)nc2sc3c(c12)CCCC3 [Compound 10, (E)-2-styryl-5,6,7,8-tetrahydrobenzo[4,5]thieno[2,3-d]pyrimidin-4(3H)-one] | potent inhibitors of microtubule polymerization similar to colchicine | 352 | destabilized in a drug dose-dependent manner | inhibit cell division and trigger apoptotic cell death | 552 | –
CCOc1ccc(C2=Nn3c(nnc3-c3ccccc3OC)SC2)cc1 [Compound C2, reference compound] | – | – | – | – | – | bound to β-tubulin

From patent publication US10913750B2, “Tubulin-binding compounds, compositions and uses related thereto” (The Regents of the University of California, priority 2015, dated 2021)
